Values quoted from earlier work in patent publication US20060140985A1, “Lansoprazole formulations and related processes and methods” (priority 2003, published 2006).
Like-named read-outs stand apart in the source and are kept apart here.

How the values were obtained:
[1] = not given; remark: listed apart in the source
[2] = not given; remark: listed apart in the source
[3] = tested on: gastric acid secretion; details: in vivo

## Cc1c(OCC(F)(F)F)ccnc1C[S+]([O-])c1nc2ccccc2[nH]1 (centres unmarked) [Lansoprazole, 2-[[[3-methyl-4 (2,2,2-trifluoroethoxy)-2-pyridyl]methyl]sulfinyl]benzimidazole]
acetonitrile
  solubility: slightly soluble
dichloromethane
  solubility: slightly soluble
dimethylformamide
  solubility: freely soluble
ethanol
  solubility: sparingly soluble
ether
  solubility: very slightly soluble
Ethyl acetate
  solubility: slightly soluble
hexane
  solubility: practically insoluble
methanol
  solubility: soluble
water
  solubility: practically insoluble
[1]; aqueous solution, pH dependence
  degradation in aqueous solution: degrades in aqueous solution, with the rate of degradation increasing with decreasing pH
[1]; light
  stability when exposed to light: stable when exposed to light for up to two months
[2]; liver
  metabolism: extensively metabolized in the liver
[2]; plasma
  plasma elimination half-life: less than two hours
[3]
  duration of acid inhibitory effect: more than twenty-four hours
